Here are results for eight compounds from patent US20190247353A1, “ACNE STRAIN-SELECTIVE ANTIBACTERIAL AGENT” (MOMOTANI JUNTENKAN CO., LTD., priority 2016, published 2019).

Type in all cases: cell-based, Propionibacterium acnes
Assay [1] has as its system HL053PA1 strain (RT4). In words: MIC by broth microdilution method, HL053PA1 strain. To be noted: for MIC: Cutibacterium acnes, 48 h; for MIC against acne bacterium strain HL053PA1 strain (RT4): monoacylglycerols, Example 3, method as Example 1. The protocol: (§1) An MIC is measured herein according to the broth microdilution method which is the standard method of Japanese Society of Chemotherapy.
(§2) The antibacterial activity of a test substance was determined based on the minimum inhibitory concentration (MIC). An MIC was measured according to the broth microdilution method which is the standard method of Japanese Society of Chemotherapy.
(§3) One-loopful of each acne bacterium strain listed in Table 1 was scraped off and inoculated into 5 mL of a GAM broth slant agar medium (pH 7.0, Nissui Pharmaceutical Co., Ltd.).
(§4) The inoculated acne bacterium strain was precultured at 37° C. in a nitrogen atmosphere (anaerobic condition) for 48 hours. The precultured microbial cells were diluted in a modified GAM broth liquid medium (pH 6.0) to a concentration of 5.0×10^4 cfu/mL (viable cell count per OD660=1 is 2.0×10^9 cfu/mL), to prepare strain suspensions.
(§5) Each fatty acid (Tokyo Chemical Industry Co., Ltd.) listed in Table 2 was dissolved in dimethylsulfoxide (DMSO) as a solvent such that the concentration became 10,000 μg/mL, and used as a test substance.
(§6) Each of strain suspensions (5.0×10^4 cfu/mL) was aliquoted in a 96-well round bottom microplate, each of the test substance (fatty acid concentration 10,000 μg/mL) was added at a 1/10 volume to the aliquot and mixed to prepare measurement samples (fatty acid concentration: 1,000 μg/mL). Measurement samples in 2-fold dilution series were prepared using the strain suspension (fatty acid concentration from 0.48 to 1,000 μg/mL).
(§7) […] The presence or absence of a precipitation of test microbial cells after the incubation was examined and the minimum concentration at which the precipitation of microbial cells […] was regarded as the MIC (μg/mL) of the test substance against the acne bacterium strain.

The test system of assay [2] is HL043PA1 strain (RT5). In words: MIC by broth microdilution method, HL043PA1 strain. To be noted: for MIC: Cutibacterium acnes, 48 h; for MIC against acne bacterium strain HL043PA1 strain (RT5): monoacylglycerols, Example 3, method as Example 1. As to the method:
as §1, §2, §3
The inoculated acne bacterium strain was precultured at 37° C. in a nitrogen atmosphere (anaerobic condition) for 48 hours. […]
as §5, §6
The measurement samples were incubated under an anaerobic condition at 37° C. for 2 days. The presence or absence of a precipitation of test microbial cells after the incubation was examined and the minimum concentration at which the precipitation of microbial cells […] was regarded as the MIC (μg/mL) of the test substance against the acne bacterium strain.
Background: Broth dilution looks for growth in wells or tubes with falling amounts of substance.

The subject of assay [3] is HL110PA3 strain (RT6). The assay is described as follows: MIC by broth microdilution method, HL110PA3 strain. To be noted: for MIC: Cutibacterium acnes, 48 h; for MIC against acne bacterium strain HL110PA3 strain (RT6): monoacylglycerols, Example 3, method as Example 1. The protocol:
as §1, §2, §3, §4, §5, §6, §7

Assay [4] relates to HL053PA1 strain (RT4) and HL043PA1 strain (RT5) versus HL110PA3 strain (RT6). In words: Strain-selective antibacterial activity (average of MICRT6/MICRT4 and MICRT6/MICRT5). An excerpt:
Herein, “acne strain-selective antibacterial activity” or “strain-selective antibacterial activity” means an index indicating better inhibition of growth of a dominant strain in acne patients compared to that of a dominant strain in healthy subjects. It is expressed by the average value of the values (MICRT6/MICRT4, and MICRT6/MICRTS) obtained by dividing the minimum inhibitory concentration (MIC) of an object substance with respect to the dominant strain in healthy subjects (RT6 strain) (MICRT6) respectively by the MIC of the object substance with respect to the dominant strain in acne patients (RT4 strain) (MICRT4), and by the MIC of the object substance with respect to the dominant strain in acne patients (RT5 strain) (MICRT5).
The strain-selective antibacterial activity of each test substance (Table 2, right-most column) was evaluated based on the following rating criteria (Table 3). When the strain-selective antibacterial activity is indicated by a numerical range, the rating was based on the minimum value thereof.

The mark [5] stands for this setting: pH 6.0 modified GAM broth, anaerobic, 37° C., 2 days (Example 1), read-out: MIC against acne bacterium strain HL053PA1 strain (RT4).
[6] abbreviates: pH 6.0 modified GAM broth, anaerobic, 37° C., 2 days (Example 1), read-out: MIC against acne bacterium strain HL043PA1 strain (RT5).
The mark [7] stands for this setting: pH 6.0 modified GAM broth, anaerobic, 37° C., 2 days (Example 1), read-out: MIC against acne bacterium strain HL110PA3 strain (RT6).

Broadly, the MIC is the lowest concentration found to suppress growth.

Molecules are shown by their SMILES. Values after ≈ are worked out from the molar mass of the structure shown. Where two headings read alike, the source gives them in different places. A value given as a limit tells only on which side of the number the result lay.

`CCCCCCCCCC(=O)O` [Capric acid (C10:0), Capric acid, reference compound]: the MIC in assay [1] (setting [5]) stood at 500 µg/mL (≈ 2900 µM); in assay [2] (setting [6]), 500 µg/mL (≈ 2900 µM); in assay [3] (setting [7]), 250 µg/mL (≈ 1450 µM). This compound also came in with a Strain-selective antibacterial activity in assay [4] (pH 6.0 (Example 1)) of 0.50.
On to `CCCCCC(=O)O` [Caproic acid (C6:0), Caproic acid, reference compound], for which the MIC in assay [1] (pH 6, read-out: MIC against acne bacterium strain HL053PA1 strain (RT4)) was 62.5 µg/mL (≈ 538 µM); in assay [2] (pH 6, read-out: MIC against acne bacterium strain HL043PA1 strain (RT5)), 62.5 µg/mL (≈ 538 µM); in assay [3] (pH 6, read-out: MIC against acne bacterium strain HL110PA3 strain (RT6)), 62.5 µg/mL (≈ 538 µM). The same compound displayed a Strain-selective antibacterial activity in assay [4] (pH 6.0 (Example 1)) of 1.0.
For `CCCCCCCC(=O)O` [Caprylic acid (C8:0), Caprylic acid, reference compound], the MIC in assay [1] (setting [5]) was determined as 250 µg/mL (≈ 1730 µM); in assay [2] (setting [6]) it was 250 µg/mL (≈ 1730 µM); in assay [3] (setting [7]), 125 µg/mL (≈ 867 µM). Further, the Strain-selective antibacterial activity in assay [4] (pH 6.0 (Example 1)) is on record as 0.50.
On to `CCCCCCC(=O)O` [Heptanoic acid (C7:0), Heptanoic acid, reference compound], for which the minimal inhibitory concentration (MIC) in assay [1] (setting [5]), in assay [2] (setting [6]) and in assay [3] (setting [7]) was 125 µg/mL (≈ 960 µM) throughout. Further, the Strain-selective antibacterial activity in assay [4] (pH 6.0 (Example 1)) amounted to 1.0.
On to `CCCCCCCCCCCC(=O)O` [Lauric acid (C12:0), Lauric acid, reference compound], for which the MIC in assay [1] (setting [5]) stood at 15.6 µg/mL (≈ 77.9 µM); in assay [2] (setting [6]) it was 31.3 µg/mL (≈ 156 µM); in assay [3] (setting [7]), 15.6 µg/mL (≈ 77.9 µM).
Consider `CCCCCCCCCCCCCC(=O)OCC(O)CO` (stereo not shown) [Monomyristin], for which, in assay [1], the “MIC against acne bacterium strain HL053PA1 strain (RT4)” value (from here on “MIC … (RT4)”) was found to be 500 µg/mL (≈ 1650 µM). Moreover, the “MIC against acne bacterium strain HL043PA1 strain (RT5)” value (“MIC … (RT5)” below) in assay [2] is 500 µg/mL (≈ 1650 µM). Further, in assay [3], the “MIC against acne bacterium strain HL110PA3 strain (RT6)” value (shortened to “MIC … (RT6)”) was above 1000 µg/mL. The compound also registered a Strain-selective antibacterial activity in assay [4] (monoacylglycerols, Example 3) above 2.0.
Turning to `CCCCCCCCCCCCCCCC(=O)OCC(O)CO` (stereo not shown) [Monopalmitin], the “MIC … (RT4)” value in assay [1] amounted to 250 µg/mL (≈ 756 µM). Moreover, in assay [2], the “MIC … (RT5)” value is 31.3 µg/mL (≈ 94.7 µM). Further, the “MIC … (RT6)” value in assay [3] was 1000 µg/mL (≈ 3030 µM). Also, the Strain-selective antibacterial activity in assay [4] (monoacylglycerols, Example 3) came to 18.
Take `CCCCCCCCCCCCCCC(=O)OCC(O)CO` (stereo not shown) [Monopentadecanoin]: the “MIC … (RT4)” value in assay [1] was 15.6 µg/mL (≈ 49.3 µM). Moreover, the “MIC … (RT5)” value in assay [2] is 7.81 µg/mL (≈ 24.7 µM). In addition, the “MIC … (RT6)” value in assay [3] was found to be 62.5 µg/mL (≈ 197 µM). For the same compound, in assay [4] (monoacylglycerols, Example 3), the Strain-selective antibacterial activity is 6.0.
